{"source": "patent US20070004039A1", "about": "“Immortalized hepatocytes” (Multicell Technologies, Inc., priority 2003, published 2007)", "key": {"[1]": {"test_system": "Fa2N-4 cells and primary human hepatocytes", "test": "Toxicity by LDH release and resazurin reduction, Fa2N-4 cells compared with primary human hepatocytes", "details": "Same or Different toxicity response in the two cell types"}, "Fa2N-4 cells": {"test_system": "Fa2N-4 cells", "test": "α-GST release toxicity test in Fa2N-4 cells (FIG. 22)", "details": "72-hour exposure, up to 100 μM"}, "[2]": {"test_system": "Fa2N-4 cells and primary human hepatocytes"}, "CYP3A4 [3]": {"test_system": "CYP3A4", "details": "human"}, "albumin": {"test_system": "albumin", "test": "Effect of dexamethasone on albumin secretion by Fa2N-4 cells (ELISA)", "type": "cell-based, human", "details": "Fa2N-4 (passage 32); dexamethasone 1.0 μM; 48 hrs"}, "CYP1A2 [4]": {"test_system": "CYP1A2"}, "UGT1A": {"test_system": "UGT1A", "test": "Invader assay UGT1A mRNA induction in Fa2N-4 cells", "type": "cell-based, human", "details": "48 hours"}, "CYP3A4 [5]": {"test_system": "CYP3A4"}, "CYP1A2 [6]": {"test_system": "CYP1A2", "details": "cited from earlier work"}, "MDR1 (P-glycoprotein)": {"test_system": "MDR1 (P-glycoprotein)", "test": "Invader assay MDR1 mRNA induction in Fa2N-4 cells", "type": "cell-based, human", "details": "48 hours"}, "CYP2B6": {"test_system": "CYP2B6", "details": "cited from earlier work"}, "CYP1A2 [7]": {"test_system": "CYP1A2", "test": "CYP1A2 activity induction in Fa2N-4 cells (phenacetin, LC/MS/MS)", "type": "cell-based, human"}, "CYP3A4 [8]": {"test_system": "CYP3A4", "details": "human", "remark": "listed apart in the source"}, "[9]": {"details": "activity based on 7-ethoxy-4-trifluoromethylcoumarin O-dealkylation"}, "[10]": {"details": "activity based on S-mephenytoin N-demethylation"}}, "note": "Where two headings read alike, the source gives them in different places.", "data": [{"smiles": "Cc1ccc2cc3c(ccc4ccccc43)c3c2c1CC3", "note": "[3-Methylcholanthrene]", "values": [{"measurement": "Cellular Response (Fa2N-4 cells compared with primary human hepatocytes)", "setting": "[1]", "result": "Same"}, {"measurement": "release of α-GST into the medium", "setting": "Fa2N-4 cells", "result": "caused a loss of membrane integrity"}]}, {"smiles": "NC(=O)N1c2ccccc2C=Cc2ccccc21", "note": "[Carbamazepine]", "values": [{"measurement": "Cellular Response (Fa2N-4 cells compared with primary human hepatocytes)", "setting": "[2]", "result": "Same"}, {"measurement": "Non-toxic Compound / Toxic Compound", "setting": "[2]", "result": "Carbamazepine"}]}, {"smiles": "Clc1ccccc1C(c1ccccc1)(c1ccccc1)n1ccnc1", "note": "[clotrimazole]", "values": [{"measurement": "CYP3A4 activity induction (FIG. 20)", "setting": "CYP3A4 [3]", "result": "CYP3A4 induction is masked by its inhibitory effect"}]}, {"smiles": "O=C1Nc2ccc(Cl)cc2[C@@](C#CC2CC2)(C(F)(F)F)O1", "note": "[Efavirenz]", "values": [{"measurement": "Cellular Response (Fa2N-4 cells compared with primary human hepatocytes)", "setting": "[2]", "result": "Same"}, {"measurement": "Non-toxic Compound / Toxic Compound", "setting": "[2]", "result": "Efavirenz"}]}, {"smiles": "CO[C@H]1C[C@H](O[C@H]2[C@H](C)[C@@H](O[C@@H]3O[C@H](C)C[C@H](N(C)C)[C@H]3OC(C)=O)[C@@H](C)C[C@@]3(CO3)C(=O)[C@H](C)[C@@H](OC(C)=O)[C@@H](C)[C@@H](C)OC(=O)[C@@H]2C)O[C@@H](C)[C@@H]1OC(C)=O", "note": "[Troleandomycin]", "values": [{"measurement": "Cellular Response (Fa2N-4 cells compared with primary human hepatocytes)", "setting": "[2]", "result": "Same"}, {"measurement": "Non-toxic Compound / Toxic Compound", "setting": "[2]", "result": "Troleandomycin"}]}, {"smiles": "C[C@@H]1C[C@H]2[C@@H]3CCC4=CC(=O)C=C[C@]4(C)[C@@]3(F)[C@@H](O)C[C@]2(C)[C@@]1(O)C(=O)CO", "note": "[Dexamethasone]", "values": [{"measurement": "Albumin", "setting": "albumin", "result": 100.0, "unit": "µg/mL"}]}, {"smiles": "CCCN(CCC)S(=O)(=O)c1ccc(C(=O)O)cc1", "note": "[Probenicid]", "values": [{"measurement": "Cellular Response (Fa2N-4 cells compared with primary human hepatocytes)", "setting": "[2]", "result": "Same"}, {"measurement": "Non-toxic Compound / Toxic Compound", "setting": "[2]", "result": "Probenicid"}]}, {"smiles": "C=C(C)[C@H]1Cc2c(ccc3c2O[C@@H]2COc4cc(OC)c(OC)cc4[C@@H]2C3=O)O1", "note": "[Rotenone]", "values": [{"measurement": "Cellular Response (Fa2N-4 cells compared with primary human hepatocytes)", "setting": "[1]", "result": "Same"}]}, {"smiles": "O=c1cc(-c2ccccc2)oc2ccc3ccccc3c12", "note": "[BNF, β-naphthoflavone]", "values": [{"measurement": "Fa2N-4 cells Fold-increase, CYP1A2", "setting": "CYP1A2 [4]", "result": 1.5, "unit": "fold"}, {"measurement": "UGT1A mRNA induction", "setting": "UGT1A", "result": 2, "unit": "fold"}, {"measurement": "expression of CYP3A4 protein (immunoblot)", "setting": "CYP3A4 [5]", "result": "does not induce CYP3A4 protein expression"}, {"measurement": "Human hepatocytes Average induction, CYP1A2", "setting": "CYP1A2 [6]", "result": 13, "unit": "fold"}, {"measurement": "Human hepatocytes Median induction, CYP1A2", "setting": "CYP1A2 [6]", "result": 8.4, "unit": "fold"}, {"measurement": "Human hepatocytes induction (range), CYP1A2", "setting": "CYP1A2 [6]", "result": "(2-56) fold"}, {"measurement": "Primary cells Fold-increase, CYP1A2", "setting": "CYP1A2 [6]; hepatocytes", "result": 13, "unit": "fold"}]}, {"smiles": "CC1(COc2ccc(CC3SC(=O)NC3=O)cc2)CCCCC1", "note": "(stereo not shown) [Ciglitazone]", "values": [{"measurement": "Cellular Response (Fa2N-4 cells compared with primary human hepatocytes)", "setting": "[2]", "result": "Same"}, {"measurement": "Non-toxic Compound / Toxic Compound", "setting": "[2]", "result": "Ciglitazone"}]}, {"smiles": "O=C1NC(=O)C(c2ccccc2)(c2ccccc2)N1", "note": "[Phenytoin]", "values": [{"measurement": "Cellular Response (Fa2N-4 cells compared with primary human hepatocytes)", "setting": "[2]", "result": "Same"}, {"measurement": "Non-toxic Compound / Toxic Compound", "setting": "[2]", "result": "Phenytoin"}]}, {"smiles": "Cc1c(C)c2c(c(C)c1O)CCC(C)(COc1ccc(CC3SC(=O)NC3=O)cc1)O2", "note": "(stereo not shown) [Troglitazone]", "values": [{"measurement": "Cellular Response (Fa2N-4 cells compared with primary human hepatocytes)", "setting": "[2]", "result": "Different"}, {"measurement": "Non-toxic Compound / Toxic Compound", "setting": "[2]", "result": "Toxic"}, {"measurement": "sensitivity of Fa2N-4 cells relative to primary hepatocytes", "setting": "[2]", "result": "more sensitive than primary hepatocytes"}]}, {"smiles": "c1ccc2c(c1)cc1ccc3cccc4ccc2c1c34", "note": "[Benzo[a]pyrene]", "values": [{"measurement": "Cellular Response (Fa2N-4 cells compared with primary human hepatocytes)", "setting": "[2]", "result": "Different"}, {"measurement": "Non-toxic Compound / Toxic Compound", "setting": "[2]", "result": "Toxic"}, {"measurement": "sensitivity of Fa2N-4 cells relative to primary hepatocytes", "setting": "[2]", "result": "more sensitive than primary hepatocytes"}]}, {"smiles": "CO[C@H]1/C=C/O[C@@]2(C)Oc3c(C)c(O)c4c(O)c(c(/C=N/N5CCN(C)CC5)c(O)c4c3C2=O)NC(=O)/C(C)=C\\C=C\\[C@H](C)[C@H](O)[C@@H](C)[C@@H](O)[C@@H](C)[C@H](OC(C)=O)[C@@H]1C", "note": "[Rifampin]", "values": [{"measurement": "MDR1 (P-glycoprotein) mRNA induction", "setting": "MDR1 (P-glycoprotein)", "result": 3, "unit": "fold"}, {"measurement": "Human hepatocytes Average induction, CYP2B6", "setting": "CYP2B6; [9]", "result": 4.1, "unit": "fold"}, {"measurement": "Human hepatocytes Median induction, CYP2B6", "setting": "CYP2B6; [9]", "result": 2.9, "unit": "fold"}, {"measurement": "Human hepatocytes induction (range), CYP2B6", "setting": "CYP2B6; [9]", "result": "≤ 14", "unit": "fold"}, {"measurement": "Human hepatocytes Average induction, CYP2B6", "setting": "CYP2B6; [10]", "result": 13, "unit": "fold"}, {"measurement": "Human hepatocytes Median induction, CYP2B6", "setting": "CYP2B6; [10]", "result": 8.5, "unit": "fold"}, {"measurement": "Human hepatocytes induction (range), CYP2B6", "setting": "CYP2B6; [10]", "result": "≤ 71", "unit": "fold"}, {"measurement": "Cellular Response (Fa2N-4 cells compared with primary human hepatocytes)", "setting": "[2]", "result": "Same"}]}, {"smiles": "COc1ccc2[nH]c([S+]([O-])Cc3ncc(C)c(OC)c3C)nc2c1", "note": "(stereo not shown) [Omeprazole]", "values": [{"measurement": "Cellular Response (Fa2N-4 cells compared with primary human hepatocytes)", "setting": "[2]", "result": "Same"}, {"measurement": "Non-toxic Compound / Toxic Compound", "setting": "[2]", "result": "Omeprazole"}, {"measurement": "induction of CYP1A2 activity", "setting": "CYP1A2 [7]; Fa2N-4, 6-well plates, 100 μM omeprazole", "result": "marked induction"}, {"measurement": "CYP1A2 activity induction over control", "setting": "CYP1A2 [7]; Fa2N-4, 6-, 12-, 24- and 96-well format, all cases", "result": "at least 9 fold"}, {"measurement": "Fa2N-4 Average induction, CYP1A2", "setting": "CYP1A2 [7]; Fa2N-4 cells", "result": 20, "unit": "fold"}, {"measurement": "Fa2N-4 induction (range), CYP1A2", "setting": "CYP1A2 [7]; Fa2N-4 cells", "result": "(9.3-29) fold"}]}, {"smiles": "CN(Cc1cnc2nc(N)nc(N)c2n1)c1ccc(C(=O)N[C@@H](CCC(=O)O)C(=O)O)cc1", "note": "[Methotrexate]", "values": [{"measurement": "Cellular Response (Fa2N-4 cells compared with primary human hepatocytes)", "setting": "[2]", "result": "Same"}, {"measurement": "Non-toxic Compound / Toxic Compound", "setting": "[2]", "result": "Methotrexate"}]}, {"smiles": "CC1=CC(=O)c2ccccc2C1=O", "note": "[Menadione]", "values": [{"measurement": "Cellular Response (Fa2N-4 cells compared with primary human hepatocytes)", "setting": "[2]", "result": "Different"}, {"measurement": "Non-toxic Compound / Toxic Compound", "setting": "[2]", "result": "Toxic"}, {"measurement": "sensitivity of Fa2N-4 cells relative to primary hepatocytes", "setting": "[2]", "result": "less sensitive"}]}, {"smiles": "Cc1c(OCC(F)(F)F)ccnc1C[S+]([O-])c1nc2ccccc2[nH]1", "note": "(stereo not shown) [Lansoprazole]", "values": [{"measurement": "Cellular Response (Fa2N-4 cells compared with primary human hepatocytes)", "setting": "[2]", "result": "Same"}, {"measurement": "Non-toxic Compound / Toxic Compound", "setting": "[2]", "result": "Lansoprazole"}]}, {"smiles": "CCC1(c2ccccc2)C(=O)NC(=O)NC1=O", "note": "[Phenobarbital]", "values": [{"measurement": "Cellular Response (Fa2N-4 cells compared with primary human hepatocytes)", "setting": "[1]", "result": "Same"}, {"measurement": "production of the 6-β testosterone metabolite", "setting": "CYP3A4 [8]", "result": "weaker CYP3A4 inducers"}]}, {"smiles": "NC(=O)OCC(COC(N)=O)c1ccccc1", "note": "[Felbamate]", "values": [{"measurement": "Cellular Response (Fa2N-4 cells compared with primary human hepatocytes)", "setting": "[2]", "result": "Same"}, {"measurement": "Non-toxic Compound / Toxic Compound", "setting": "[2]", "result": "Felbamate"}]}]}
